Reference: US20220370454A1, “METHODS FOR TREATING CENTRAL NERVOUS SYSTEM DISORDERS WITH MUSCARINIC RECEPTOR ACTIVATION AND ANTIPSYCHOTICS” (Karuna Therapeutics, Inc., priority 2021, published 2022)
Each block holds one molecule with its values, some of them ahead of it.

Experiments:
Adult male C57BL/6J mice = assay: Conditioned avoidance response (CAR) assay, Example 1; assay type: in vivo; conditions: for Effect on conditioned avoidance responding (dose-response, FIG. 1): each compound alone, compiled independent studies; for Avoidance responding versus vehicle-vehicle control, drug alone: subthreshold doses alone (data not shown); for Blockade of xanomeline's effects in CAR by muscarinic antagonist: maximally active dose of xanomeline, FIG. 11, N=14
Source text: In the CAR assay, mice were first trained to avoid a foot shock (i.e., crossing from one side of a shuttle box to another within 10 secs) to a performance criterion of ≥85% avoidance responses. A repeated-measures, counterbalanced design was used. Two experiments evaluated the effects of blocking central (with scopolamine) vs. peripheral (with N-methylscopolamine) muscarinic receptors. […] “Subthreshold” of “sub-efficacious” refers to doses that are lower than the therapeutically effective amount for monotherapy but which could be effective in synergy with the antipsychotics tested.
Referring to FIG. 1, the compiled data over independent studies with each compound were analyzed separately via one-way repeated-measures ANOVA. A Dunnett post-hoc test was performed and that dose group significance was only assessed against Vehicle.
Post hoc analysis vs. xanomeline alone (*) and vs. comparator dose alone (#).

male C57BL/6J mice = assay: Conditioned avoidance response (CAR) assay, Example 2 (enhanced aripiprazole formulation, two sequential injections); conditions: for Average avoidance response percentages, A alone: Example 2
Method: Also, in Example 2, compounds were delivered as two sequential subcutaneous injections rather than one.
In Example 2, a 5% vehicle solution was prepared from 1.0 mL Tween-80 dissolved in 19.0 mL saline. […] The average pH was 3.8 and compound was dosed at a 10 mL/kg bodyweight volume. Drug solutions were prepared fresh on each dosing day before testing. All solutions were mixed or vortexed thoroughly before injections.
Subjects (N=25) were male C57BL/6J, purchased from Jackson Labs, and successfully trained for CAR. Mice were first tested in an aripiprazole dose response study comprised of VEH, 0.3, 1, 3, and 10 mg/kg (data not shown). Dose order was randomly assigned for each mouse. Mice were returned to their home cages for 30 minutes following injection to allow the drug to take effect before testing began.
To match the formulation procedure from Example 1 while maintaining an appropriate volume, a relatively high concentration aripiprazole stock was first made and then diluted to the target concentrations for dosing. A 5% Tween-80 solution was prepared from 2.0 mL Tween-80 dissolved in 38.0 mL of saline. A 3.0 mg/kg aripiprazole solution as a stock was prepared from 3.0 mg aripiprazole dissolved in 5.0 mL 5% Tween-80, giving a concentration of 0.6 mg/mL. At a dosing volume of 5 mL/kg, equaling 3.0 mg/kg. […] The average pH was 6.2. For 0.3 mg/kg aripiprazole, 0.6 mL of the 3 mg/kg aripiprazole stock was diluted in 5.4 mL of 5% Tween-80. For 0.1 mg/kg aripiprazole, 0.2 mL of the 3 mg/kg aripiprazole stock was dissolved in 5.8 mL of 5% Tween-80.
The 1.0 mg/kg xanomeline solution was prepared from 3.05 mg xanomeline dissolved in 10.0 mL of sterile water, giving a concentration of 0.2 mg/mL. At a dosing volume of 10 mL/kg, this equals 1.0 mg/kg. (The drug mass adjustment factor between xanomeline free base and xanomeline tartrate is 1.5262.) The average pH was 4.4.
Dose order was randomly assigned for each mouse. Injection 1 and Injection 2 occurred in sequence, with no gap time. Mice were returned to their home cages for 30 minutes following injection to allow the drugs to take effect before testing began. Mice were injected with vehicle (saline at 10 mL/kg SC and Tween-80 at 5 mL/kg IP) the day before dosing days. Mice were only dosed if their average percent avoidance values for the previous two non-dose days was >85%.
The study then evaluated the effect of blocking muscarinic receptors (via scopolamine) on the activity and efficacy of aripiprazole in the Conditioned Avoidance Response (CAR) assay. The aripiprazole solution was prepared as before. To prepare the 0.3 mg/kg scopolamine solution, 3.397 mg scopolamine was dissolved in 40 mL of saline. The actual drug weight of SCOP in this solution is 2.4 mg (adjusted by a factor 1.41499 for the salt content), giving a concentration of 0.06 mg/mL. At a dosing volume of 5 mL/kg, this equals 0.3 mg/kg. The average pH of this solution was 7.3.

[1] = test system: MK-801-induced locomotor activity in C57BL/6J mice; assay: MK-801-induced locomotor activity (LMA) assay; assay type: in vivo
Source text: In the CAR assay, mice were first trained to avoid a foot shock (i.e., crossing from one side of a shuttle box to another within 10 secs) to a performance criterion of ≥85% avoidance responses. A repeated-measures, counterbalanced design was used. Two experiments evaluated the effects of blocking central (with scopolamine) vs. peripheral (with N-methylscopolamine) muscarinic receptors. Additional experiments evaluated augmentation and synergy by combining dosing subthreshold doses of xanomeline plus risperidone or aripiprazole. “Subthreshold” of “sub-efficacious” refers to doses that are lower than the therapeutically effective amount for monotherapy but which could be effective in synergy with the antipsychotics tested.
In the LMA assay, varying doses of xanomeline and risperidone were co-formulated. […] After the experiment, plasma and brain tissue were collected to determine drug exposure.
Data are mean (±SEM) total distance traveled.

[2] = Brain and plasma drug exposure collected after the LMA study; assay type: in vivo, mice
Source text: After the experiment, plasma and brain tissue were collected to determine drug exposure.

Escape failures (male C57BL/6J mice; aripiprazole dose response study, 0.3-10 mg/kg): not evident at any doses
Compound: O=C1CCc2ccc(OCCCCN3CCN(c4cccc(Cl)c4Cl)CC3)cc2N1 [Aripiprazole, aripiprazole]
Average avoidance response percentages, A alone (Adult male C57BL/6J mice; aripiprazole 1 mg/kg alone): 2%
Average avoidance response percentages, A alone (Adult male C57BL/6J mice; aripiprazole 3 mg/kg alone): 6%
Effect on conditioned avoidance responding (dose-response, FIG. 1) (Adult male C57BL/6J mice): dose-dependently reduced conditioned avoidance responding
Avoidance responding versus vehicle-vehicle control, drug alone (Adult male C57BL/6J mice): did not significantly differ from vehicle-vehicle control conditions
Average avoidance response percentages, A alone (male C57BL/6J mice; aripiprazole 0.1 mg/kg IP alone): 14%
Average avoidance response percentages, A alone (male C57BL/6J mice; aripiprazole 0.3 mg/kg IP alone): 31%
Effects on CAR activity endpoints (male C57BL/6J mice; aripiprazole 3 mg/kg IP, FIG. 18, N=15): robust effects on CAR activity endpoints
Escape failures (male C57BL/6J mice; aripiprazole 0.1, 0.3 mg/kg with or without xanomeline 1 mg/kg): No dose of aripiprazole or combination dose with xanomeline resulted in escape failures
Disruption of CAR performance (dose response) (male C57BL/6J mice; aripiprazole 0.3, 1, 3 and 10 mg/kg, data not shown): effective at disrupting CAR performance in a dose-related manner
ED50 in CAR (male C57BL/6J mice; aripiprazole dose response study, Example 2 formulation): ~0.3 mg/kg

Compound: C[N+]1(C)[C@@H]2C[C@@H](OC(=O)[C@H](CO)c3ccccc3)C[C@H]1[C@@H]1O[C@@H]12 [N-methyl-scopolamine, N-methylscopolamine]
Blockade of the activity of xanomeline in CAR (Adult male C57BL/6J mice; 100-fold higher dose of N-methyl-scopolamine): failed to block the activity of xanomeline
Blockade of xanomeline's effects in CAR by muscarinic antagonist (Adult male C57BL/6J mice): had no effect

Compound: Cc1nc2n(c(=O)c1CCN1CCC(c3noc4cc(F)ccc34)CC1)CCCC2 [Risperidone, risperidone]
Effect on conditioned avoidance responding (dose-response, FIG. 1) (Adult male C57BL/6J mice): dose-dependently reduced conditioned avoidance responding
Average avoidance response percentages, R alone (Adult male C57BL/6J mice; risperidone 0.03 mg/kg alone): 5%
Average avoidance response percentages, R alone (Adult male C57BL/6J mice; risperidone 0.1 mg/kg alone): 26%
Average avoidance response percentages, R alone (Adult male C57BL/6J mice; risperidone 0.3 mg/kg alone): 85%
Avoidance responding versus vehicle-vehicle control, drug alone (Adult male C57BL/6J mice): did not significantly differ from vehicle-vehicle control conditions
Activity alone against MK-801 stimulated activity ([1]; risperidone 0.001 mg/kg alone): Inactive

Xanomeline plasma exposure across the increasing doses of risperidone ([2]; co-dosed with risperidone): no significant increase
Brain level of the named substance ([2]; treatment: MK-801 0.3 + risperidone 0.001 + xanomeline 1 mg/kg): 143.4 ± 4.8 ng/g
Brain level of the named substance ([2]; treatment: MK-801 0.3 + risperidone 0.003 + xanomeline 1 mg/kg): 154.6 ± 9.3 ng/g
Brain level of the named substance ([2]; treatment: MK-801 0.3 + risperidone 0.01 + xanomeline 1 mg/kg, * p<0.05 vs xanomeline alone): 184.9 ± 15.5* ng/g
Brain level of the named substance ([2]; treatment: MK-801 0.3 + xanomeline 1 mg/kg): 126.0 ± 6.6 ng/g
Compound: CCCCCCOc1nsnc1C1=CCCN(C)C1 [Xanomeline, xanomeline]
Effect on conditioned avoidance responding (dose-response, FIG. 1) (Adult male C57BL/6J mice): dose-dependently reduced conditioned avoidance responding
Average avoidance response percentages, X alone (Adult male C57BL/6J mice; xanomeline 1 mg/kg alone, aripiprazole combination study (co-formulation, single SC injection), N=16): 5%
Average avoidance response percentages, X alone (Adult male C57BL/6J mice; xanomeline 1 mg/kg alone, risperidone combination study, N=17): 7%
Average avoidance response percentages, X alone (Adult male C57BL/6J mice; xanomeline 3 mg/kg alone, aripiprazole combination study): 20%
Activity alone against MK-801 stimulated activity ([1]; xanomeline 1 mg/kg alone): Inactive
Activity in the CAR assay (percentage avoidance responses and latency to respond) (male C57BL/6J mice; 1 mg/kg dose alone): inactive in the CAR assay
Average avoidance response percentages, X alone (male C57BL/6J mice; xanomeline 1 mg/kg SC alone, Example 2, N=16): 6%

Compound: CN1[C@@H]2C[C@@H](OC(=O)[C@H](CO)c3ccccc3)C[C@H]1[C@@H]1O[C@@H]12 [scopolamine]
Blockade of the activity of xanomeline in CAR (Adult male C57BL/6J mice; SCOP 0.03 mg/kg): partially blocks
Blockade of the activity of xanomeline in CAR (Adult male C57BL/6J mice; SCOP 0.1 mg/kg): fully
Activity alone in CAR (Adult male C57BL/6J mice; SCOP 0.3 mg/kg): has no activity alone in CAR
Blockade of xanomeline's effects in CAR by muscarinic antagonist (Adult male C57BL/6J mice): dose-dependently blocked xanomeline's effects
Reversal of xanomeline activity in CAR (Adult male C57BL/6J mice; scopolamine 0.3 mg/kg): fully reversed xanomeline activity
Effect on risperidone's antipsychotic-like effect in CAR (Adult male C57BL/6J mice; scopolamine 0.3 mg/kg, FIG. 12, N=16): failed to attenuate
Effect of scopolamine on the activity of aripiprazole in CAR (male C57BL/6J mice; 0.3 mg/kg scopolamine SC 15 minutes before 3.0 mg/kg aripiprazole): slight, but statistically significant effect in reducing the activity of aripiprazole
